Consider 4 compounds from patent US11191806B2, “Polymyxin-based pharmaceutical composition for treating infectious diseases” (priority 2018, dated 2021).

Bridge positions count the residues as written; N and C are the ends. Square brackets hold non-standard residues; d marks the D form. Peptide text beside a SMILES is read from it. * marks the point of attachment. X1 = CC[C@H](C)CCCCC(=O)*; Dab = NCC[C@H](N)C(=O)O

Data set [1] in a line: Accumulation of colistin in the kidneys after intravenous injection. Format: in vivo. The note with it: rats, colistin 0.5 mg/kg, SCDC 2 mg/kg. The method, then: In this experiment was determined, the accumulation of colistin in the kidneys of rats after intravenous injection of Polyfro (colistin, SCDC and liposomal cholecalciferol). Concentrations of colistin (CC), SCDC/cholecalciferol (CCF) were used based on preliminary modeling (the number of binding sites in one molecule, multiplied by their number in one megalin molecule, the molecular weight of megalin and the approximate amount of megalin in one kidney and the weight of the kidney) The result was the required amount of SCDC about 2 mg/kg of weight. For CS, a subtoxic dose was selected (based on the instructions). This is an experiment on the “displacement” of polymyxin from the kidneys with a synergistic combination of SCDC/HCF. As a result, about half of the polymyxin was displaced from the kidneys by SCDC/HCF. All components of CC, SCDC/CCF were determined in the sediment of renal homogenate and supernatant by HPLC. […] The content of colistin in the kidneys (A) and its concentration in terms of the weight of the kidneys (μg/g) (B) are shown in FIG. 1.
All data are statistically significant and differences between groups and controls are significant.

A short description of data set [2]: Degree of destruction of kidney tissue: urinary NGAL and NAG (ELISA). The format is in vivo, rats. The method, then:
The degree of destruction of kidney tissue was determined by the concentration in the urine of acetyl-beta-glucosaminidase (N-acetyl-beta-d-glucosaminidase) (NAG) and neutrophilic gelatinase-associated lipocalin (neutrophil gelatinase-associated lipocalin) (NGAL) (Table 5).
The concentrations of NGAL and NAG in urine were determined using ELISA-text systems on a StatFax303+reader.

For data set [3], the target named is T1, megalin of rat kidney homogenate (Rattus norvegicus, UniProt P98158).
T1 construct: megalin of rat kidney homogenate; from tissue; host or cells: rat kidney homogenate
Kind of data set: Binding of cyanocobalamin derivatives to renal megalin (micromethod in Eppendorf tubes, HPLC of supernatant). The note with it: derivative in supernatant after centrifugation determined by HPLC. As for the experimental part: The test was carried out by a micromethod in Eppendorf tubes on the ability of cyanocobalamin derivatives to bind to megalin: after centrifugation, the bound derivative together with megalin remained in the sediment, and the percentage of the remaining unreacted cyanocobalamin derivative in the supernatant was determined using HPLC on a Milichrom A-02 liquid chromatograph.

Where [4] appears, read: Table 5, rats, i.v. 1 time per day for 10 days, 0.5/15 mg/kg polymyxin/SCDC.

T1 sequence (P98158 26-4660): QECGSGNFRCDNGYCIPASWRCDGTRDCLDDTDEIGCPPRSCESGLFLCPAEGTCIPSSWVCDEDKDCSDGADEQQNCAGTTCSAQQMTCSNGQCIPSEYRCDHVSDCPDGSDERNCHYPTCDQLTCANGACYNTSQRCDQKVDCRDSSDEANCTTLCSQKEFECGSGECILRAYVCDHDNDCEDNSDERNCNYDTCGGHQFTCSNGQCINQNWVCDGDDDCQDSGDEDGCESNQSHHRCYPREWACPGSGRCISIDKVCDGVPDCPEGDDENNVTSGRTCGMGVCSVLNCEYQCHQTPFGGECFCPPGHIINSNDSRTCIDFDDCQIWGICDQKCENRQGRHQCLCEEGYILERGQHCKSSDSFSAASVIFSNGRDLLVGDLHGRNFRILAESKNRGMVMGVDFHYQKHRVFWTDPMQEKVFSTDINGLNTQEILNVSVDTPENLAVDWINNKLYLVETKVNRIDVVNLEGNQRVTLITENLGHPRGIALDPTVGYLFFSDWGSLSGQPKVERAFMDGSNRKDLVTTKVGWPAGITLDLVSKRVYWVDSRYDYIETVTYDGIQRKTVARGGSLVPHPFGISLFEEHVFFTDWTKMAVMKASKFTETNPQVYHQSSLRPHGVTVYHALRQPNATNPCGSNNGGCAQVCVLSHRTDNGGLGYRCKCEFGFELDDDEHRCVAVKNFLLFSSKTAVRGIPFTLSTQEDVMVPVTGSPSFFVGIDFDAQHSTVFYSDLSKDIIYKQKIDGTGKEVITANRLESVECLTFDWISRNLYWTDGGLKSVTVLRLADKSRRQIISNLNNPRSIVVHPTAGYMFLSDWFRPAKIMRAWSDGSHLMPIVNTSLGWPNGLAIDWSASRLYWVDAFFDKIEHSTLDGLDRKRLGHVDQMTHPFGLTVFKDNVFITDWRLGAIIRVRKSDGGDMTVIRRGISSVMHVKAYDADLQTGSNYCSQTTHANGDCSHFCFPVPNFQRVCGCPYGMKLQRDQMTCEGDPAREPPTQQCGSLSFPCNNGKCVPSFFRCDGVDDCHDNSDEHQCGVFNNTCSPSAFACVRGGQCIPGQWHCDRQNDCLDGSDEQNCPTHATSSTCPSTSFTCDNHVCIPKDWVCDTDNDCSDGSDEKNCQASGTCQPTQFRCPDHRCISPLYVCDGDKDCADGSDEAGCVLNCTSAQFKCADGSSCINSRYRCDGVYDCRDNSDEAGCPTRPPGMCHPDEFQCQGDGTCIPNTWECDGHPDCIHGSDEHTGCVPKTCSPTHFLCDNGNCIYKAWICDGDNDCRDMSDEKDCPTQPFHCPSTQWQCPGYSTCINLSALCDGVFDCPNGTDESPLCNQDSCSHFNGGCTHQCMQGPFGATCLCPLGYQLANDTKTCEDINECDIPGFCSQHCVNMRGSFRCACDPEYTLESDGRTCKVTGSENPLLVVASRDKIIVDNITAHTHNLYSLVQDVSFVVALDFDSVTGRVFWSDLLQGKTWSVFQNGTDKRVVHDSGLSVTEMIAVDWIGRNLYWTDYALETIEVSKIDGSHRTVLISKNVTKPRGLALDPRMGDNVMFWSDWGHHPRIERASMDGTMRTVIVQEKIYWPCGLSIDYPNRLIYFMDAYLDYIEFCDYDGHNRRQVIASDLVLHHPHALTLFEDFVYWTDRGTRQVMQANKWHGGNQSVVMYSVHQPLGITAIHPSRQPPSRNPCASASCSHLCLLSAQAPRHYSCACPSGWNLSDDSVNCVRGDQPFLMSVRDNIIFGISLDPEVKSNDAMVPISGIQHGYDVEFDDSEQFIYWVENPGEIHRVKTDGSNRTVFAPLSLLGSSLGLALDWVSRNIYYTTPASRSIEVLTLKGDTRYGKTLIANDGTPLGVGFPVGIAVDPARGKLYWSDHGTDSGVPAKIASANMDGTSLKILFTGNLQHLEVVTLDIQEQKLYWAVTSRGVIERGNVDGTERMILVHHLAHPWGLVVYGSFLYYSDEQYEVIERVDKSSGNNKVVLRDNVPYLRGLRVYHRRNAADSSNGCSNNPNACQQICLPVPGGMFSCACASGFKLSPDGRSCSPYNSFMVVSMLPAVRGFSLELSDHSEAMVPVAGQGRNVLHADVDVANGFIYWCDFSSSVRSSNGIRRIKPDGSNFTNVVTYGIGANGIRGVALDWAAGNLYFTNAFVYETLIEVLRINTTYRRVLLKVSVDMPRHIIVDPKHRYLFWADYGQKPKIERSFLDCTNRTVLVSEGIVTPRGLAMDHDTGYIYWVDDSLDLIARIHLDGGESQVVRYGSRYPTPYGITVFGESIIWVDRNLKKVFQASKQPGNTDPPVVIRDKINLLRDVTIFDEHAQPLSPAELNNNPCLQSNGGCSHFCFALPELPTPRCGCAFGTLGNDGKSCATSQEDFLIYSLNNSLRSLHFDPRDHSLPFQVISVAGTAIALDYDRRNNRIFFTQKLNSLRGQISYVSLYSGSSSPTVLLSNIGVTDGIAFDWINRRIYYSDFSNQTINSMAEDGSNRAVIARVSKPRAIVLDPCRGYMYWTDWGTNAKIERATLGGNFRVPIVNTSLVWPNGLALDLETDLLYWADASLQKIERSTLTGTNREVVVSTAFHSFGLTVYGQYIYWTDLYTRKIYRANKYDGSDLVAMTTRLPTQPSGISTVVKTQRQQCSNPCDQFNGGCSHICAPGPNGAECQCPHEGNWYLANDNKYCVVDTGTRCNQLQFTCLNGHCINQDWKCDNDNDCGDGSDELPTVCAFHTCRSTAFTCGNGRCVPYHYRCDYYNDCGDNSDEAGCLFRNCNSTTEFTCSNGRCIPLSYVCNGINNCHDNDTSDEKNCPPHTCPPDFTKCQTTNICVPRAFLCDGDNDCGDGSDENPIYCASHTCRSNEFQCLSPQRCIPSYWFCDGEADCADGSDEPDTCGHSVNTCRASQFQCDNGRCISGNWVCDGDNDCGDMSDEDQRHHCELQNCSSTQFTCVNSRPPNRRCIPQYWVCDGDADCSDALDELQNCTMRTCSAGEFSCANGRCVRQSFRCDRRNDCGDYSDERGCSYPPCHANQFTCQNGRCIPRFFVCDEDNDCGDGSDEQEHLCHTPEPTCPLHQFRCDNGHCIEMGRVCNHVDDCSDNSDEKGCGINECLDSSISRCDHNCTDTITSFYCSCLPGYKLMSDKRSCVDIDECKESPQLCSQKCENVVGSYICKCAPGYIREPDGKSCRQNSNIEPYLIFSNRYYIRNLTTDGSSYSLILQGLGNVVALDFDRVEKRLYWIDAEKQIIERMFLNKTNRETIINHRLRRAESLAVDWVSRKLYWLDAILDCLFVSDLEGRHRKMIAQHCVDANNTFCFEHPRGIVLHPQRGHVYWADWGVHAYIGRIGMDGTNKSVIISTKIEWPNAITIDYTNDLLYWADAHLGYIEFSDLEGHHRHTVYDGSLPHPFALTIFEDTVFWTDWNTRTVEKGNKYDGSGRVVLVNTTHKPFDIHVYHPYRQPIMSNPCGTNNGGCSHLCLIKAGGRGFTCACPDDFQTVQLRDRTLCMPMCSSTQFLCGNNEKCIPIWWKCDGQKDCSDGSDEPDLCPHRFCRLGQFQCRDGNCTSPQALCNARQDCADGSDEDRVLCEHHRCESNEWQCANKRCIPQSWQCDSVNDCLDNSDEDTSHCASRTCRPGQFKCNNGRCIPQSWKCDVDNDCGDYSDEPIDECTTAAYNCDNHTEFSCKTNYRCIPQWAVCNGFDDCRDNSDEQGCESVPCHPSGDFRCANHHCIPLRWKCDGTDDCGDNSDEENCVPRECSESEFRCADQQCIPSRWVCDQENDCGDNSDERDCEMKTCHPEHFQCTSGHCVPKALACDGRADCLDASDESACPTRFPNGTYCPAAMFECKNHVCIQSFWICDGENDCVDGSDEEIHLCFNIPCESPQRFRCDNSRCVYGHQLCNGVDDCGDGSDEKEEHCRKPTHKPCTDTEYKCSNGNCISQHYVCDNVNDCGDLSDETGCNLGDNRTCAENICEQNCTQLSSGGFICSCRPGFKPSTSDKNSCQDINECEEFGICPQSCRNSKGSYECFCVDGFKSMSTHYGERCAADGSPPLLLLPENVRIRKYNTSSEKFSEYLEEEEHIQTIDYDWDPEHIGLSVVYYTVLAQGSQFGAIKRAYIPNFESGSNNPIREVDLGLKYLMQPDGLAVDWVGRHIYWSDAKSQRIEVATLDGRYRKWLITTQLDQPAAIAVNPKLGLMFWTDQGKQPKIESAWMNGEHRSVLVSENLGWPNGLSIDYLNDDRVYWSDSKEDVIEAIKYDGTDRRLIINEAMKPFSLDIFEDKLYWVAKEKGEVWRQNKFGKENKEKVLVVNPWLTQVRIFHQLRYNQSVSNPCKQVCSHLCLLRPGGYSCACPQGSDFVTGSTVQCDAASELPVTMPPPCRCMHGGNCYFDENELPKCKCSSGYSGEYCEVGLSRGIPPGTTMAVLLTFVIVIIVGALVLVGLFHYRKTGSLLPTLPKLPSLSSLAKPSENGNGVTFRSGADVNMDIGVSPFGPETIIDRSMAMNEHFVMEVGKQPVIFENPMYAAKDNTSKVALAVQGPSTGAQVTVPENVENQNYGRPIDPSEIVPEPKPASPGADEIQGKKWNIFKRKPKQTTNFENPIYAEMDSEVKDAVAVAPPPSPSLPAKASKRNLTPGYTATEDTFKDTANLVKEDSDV

As to `CC[C@H](C)CCCCC(=O)N[C@@H](CCN)C(=O)N[C@H](C(=O)N[C@@H](CCN)C(=O)N[C@H]1CCNC(=O)[C@H]([C@@H](C)O)NC(=O)[C@H](CCN)NC(=O)[C@H](CCN)NC(=O)[C@H](CC(C)C)NC(=O)[C@@H](CC(C)C)NC(=O)[C@H](CCN)NC1=O)[C@@H](C)O` [Colistin, colistin] (X1-[Dab]T[Dab][Dab][Dab][dL]L[Dab][Dab]T; lactam 4-C), the “Accumulation of colistin in the kidneys” value in data set [1] turned out to be 20.5 ± 2.5 µg. Besides, the “Urinary Excretion of NGAL” value in data set [2] (setting [4]) amounted to 775 ± 33 µg/h; in data set [2] (Table 6, n = 15), 775 ± 33 µg/h. Moreover, the “Urinary NAG Excretion” value amounted to 2578 ± 95 µg/h in data set [2] (setting [4]) and 2578 ± 95 µg/h in data set [2] (Table 6, n = 15).

cyanocobalamin [derivative 11]: the “% bound derivative” value in data set [3] is reported as 52%.

In the case of “triacetyl-cyanocobalamin [derivative 31]”, in data set [3], the “% bound derivative” value amounted to 7%.

Turning to “trisuccinyl-cyanocobalamin [derivative 30]”, the “% bound derivative” value in data set [3] came to 6%.
